# From patent publication US12035738B2, “Low calorie food compositions” (Mars, Incorporated, priority 2015, dated 2024)
# Tests used:
# [1] = Previous tolerability study (H-09-2011), cellobiose consumed as a drink in water based solution; format: in vivo, humans
# Protocol: (§1) A number of gastro-intestinal symptoms were reported by the panelists in the 24 hours following the sensory sessions, the most common being flatulence (10/10 on at least 1 occasion) and bowel sounds (8/10 on at least 1 occasion). Some degree of […] discomfort was reported by 7/10 panelists on 1 or more occasions and 5 out of the 10 panelists suffered diarrhea following 1 or more sessions. A previous tolerability study carried out using cellobiose (H-09-2011) examined GI effects when cellobiose was delivered in a water based solution and used only male subjects aged between 18-35 yrs. The number and severity of symptoms seen in this study was not expected given the previous tolerability results where cellobiose was consumed as a drink (10, 20, 30 or 50 g of cellobiose was dissolved in 200 ml of hot water and allowed to cool to room temperature overnight). […] With the consumption of 30 g, 4 people (31%) experienced short duration abdominal pain (ranging in severity from 1 to 3 out of 5), 2 people (15%) reported mild flatulence (severity 1 out of 5) and one person reported this at a severity of 3 out of 5. […] Six subjects (46%) reported flatulence (range 1-4 out of 5), and 4 experienced abdominal pain (severity between 1-2 out of 5). Three quarters of subjects were happy to take part in future studies involving the ingestion of cellobiose, even at the highest dose.
# [2] = administered to humans as a drink; cited from earlier work
# [3] = set-up: species or system humans; conditions: in vivo
# Protocol: A panel of 10 assessors were used to evaluate sensory differences between cellobiose containing (2 levels; 75% and 100% sucrose substitution) and standard chocolate.
# The maximum amount of cellobiose consumed during one 3 hour sensory session was set at 20 g and 8 g respectively (100% cellobiose sample contained 49.5 g cellobiose/100 g, 75% cellobiose sample contained 34.7 g/100 g and 60% inulin sample contained 29.7 g inulin/100 g).
# For each attribute, panelists were presented with all samples (˜3.5 g sample size) allowing comparative assessment. Panelists first determined rank order and then assigned ratings using separate line scales for each sample/attribute.
# All samples were presented in 2 oz plastic pots labelled with random 3 digit codes. Panelists were provided with unsalted cracker (Rakusen, U.K.), green apple slices and mineral water (Evian, France) for palate cleansing. Attributes were assessed in blocks of 2 followed by 15 mins rest breaks.
# as §1
# [4] = 30 g cellobiose, severity 1 out of 5
structure (smiles),measurement,setting,value
O=C[C@H](O)[C@@H](O)[C@H](O[C@@H]1O[C@H](CO)[C@@H](O)[C@H](O)[C@H]1O)[C@H](O)CO [cellobiose],abdominal symptoms reported,[1]; 10 g cellobiose in 200 ml water,mild or no abdominal symptoms
same,abdominal symptoms reported,[1]; 20 g cellobiose in 200 ml water,mild or no abdominal symptoms
same,people who experienced short duration abdominal pain,[1]; 30 g cellobiose,4 people
same,persons who reported flatulence at a severity of 3 out of 5,[1]; 30 g cellobiose,one
same,severity of mild flatulence,[1]; 30 g cellobiose,1 out of 5
same,share of people with short duration abdominal pain,[1]; 30 g cellobiose,31%
same,people who reported mild flatulence,[1]; [4],2 people
same,share of people with mild flatulence,[1]; [4],15%
same,abdominal pain severity,[1]; 50 g cellobiose,1-2 out of 5
same,flatulence severity range,[1]; 50 g cellobiose,1-4 out of 5
same,persons who reported diarrhea in the first 24 h,[1]; 50 g cellobiose,1
same,persons with a single episode of diarrhea 2 h after consuming,[1]; 50 g cellobiose,1 person
same,share of subjects who reported flatulence,[1]; 50 g cellobiose,46%
same,subjects who experienced abdominal pain,[1]; 50 g cellobiose,4
same,subjects who reported flatulence,[1]; 50 g cellobiose,Six
same,unpleasant side effects,[2],not observed to such a great degree
same,panelists reporting bowel sounds,"[3]; human, 24 h",8/10
same,panelists reporting flatulence,"[3]; human, 24 h",10/10
same,panelists reporting some degree of abominable discomfort,"[3]; human, 24 h",7/10
same,panelists who suffered diarrhea,"[3]; human, 24 h",5 out of the 10 panelists
same,Symptoms (y/n),[3],Y
same,undesirable side effects,[3],"stomach cramps, nausea, diarrhea and loss of appetite"
